Entries after “also recorded” stand apart in the source; their conditions may differ.
What was measured:
[1] = Toxicity in treated xenograft-bearing mice (weight loss, clinical observation); format: in vivo, nude mice; conditions: gefitinib 40 or 120 mg/kg per os 5 days a week; PEITC 20 to 90 mg/kg per os every 2 days
Procedure: (§1) Briefly, tumor xenografts were maintained by successive s.c. transplantation of tumor fragments in 8-week old nude mice. Tumor growth curves were obtained by plotting the mean relative tumor volume (i.e. the volume at a given time divided by the volume at the start of the experiment) from groups of at least 5 mice against time. Gefitinib was administered per os at 40 or 120 mg/kg 5 days a week for 3 to 5 weeks, while PEITC dissolved in corn oil was administered per os at 20 to 90 mg/kg every 2 days.

[2] = test system: human HEP-2 HNSCC xenograft; design: species or system nude mice; conditions: mouse, in vivo
Procedure: (§2) The effect of gefitinib and PEITC alone or in combination on the growth of human tumor xenografts in nude mice was tested according to previously published procedures.
as §1

[3] = test system: Hep2 human HNSCC cell line; assay: cells; format: cell-based
Procedure: (§3) The 3-(4,5-dimethylthiazol-2-yl)-2,5-diphenyltetrazolium bromide (MTT) cell proliferation assay was used to determine the growth inhibitory effect of gefitinib on the Hep2, CAL33 and […] human HNSCC cell lines. […] Each measurement was done in quadruplicate and the data were expressed as % proliferation of control cells incubated in the absence of drug.

[4] = test system: CAL33 human HNSCC cell line; assay: cells; format: cell-based; conditions: CAL-33, MTT, 72h incubation, drug used alone
Procedure: as §3

[5] = test system: PC3 human HNSCC cell line; assay: cells; format: cell-based; conditions: MTT, 72h incubation, drug used alone
Procedure: as §3

[6] = test system: human SC131 NSCLC xenograft; format: in vivo, nude mice
Procedure: as §2, §1

advanced NSCLC = conditions: 142 patients with refractory disease; cited from earlier work
[7] = test system: human IC9 NSCLC xenograft; assay: Tumor xenograft growth in nude mice; format: in vivo; conditions: gefitinib 120 mg/kg per os, 5 days a week for 3 to 5 weeks
Procedure: as §2, §1

[8] = test system: human IC14 NSCLC xenograft; assay: Tumor xenograft growth in nude mice; format: in vivo; conditions: gefitinib 120 mg/kg per os, 5 days a week for 3 to 5 weeks
Procedure: as §2, §1

[9] = test system: human TEP NSCLC xenograft; assay: Tumor xenograft growth in nude mice; format: in vivo; conditions: gefitinib 120 mg/kg per os, 5 days a week for 3 to 5 weeks
Procedure: as §2, §1

NSCLC = conditions: gefitinib added to chemotherapy; over 2000 previously untreated NSCLC patients; cited from earlier work

## S=C=NCCc1ccccc1 [PEITC, Phenylethyl isothiocyanate]
[1]
  toxicity, judged by absence of weight loss and clinical observation: No toxicity was observed
[2]
  inhibition of tumor growth: neither gefitinib or PEITC had any antitumor effect
[3]; Homo sapiens, HEP-2, MTT, 72h incubation, drug used alone
  IC50: 350 µM
[4]
  IC50: 180 µM
[5]
  IC50: 490 µM
[6]; mouse, in vivo
  inhibition of tumor growth: neither gefitinib or PEITC had any antitumor effect

## COc1cc2ncnc(Nc3ccc(F)c(Cl)c3)c2cc1OCCCN1CCOCC1 [gefitinib, Gefitinib]
Advanced NSCLC
  response rate: 10%
[1]
  toxicity, judged by absence of weight loss and clinical observation: No toxicity was observed
[3]; Hep2 versus CAL33 and PC3
  increase in the IC50 for gefitinib, compared with CAL33 and PC3: 4 fold
[6]; gefitinib 120 mg/kg per os, 5 days a week for 3 to 5 weeks
  tumor growth response: refractory; also recorded: did not respond
[7]
  tumor growth response: sensitive; also recorded: responded
[8]
  tumor growth response: responded
[9]
  tumor growth response: responded
NSCLC
  benefit in survival, tumor response, or time to progression: no benefit
